Laboratory results: patent US20110207723A1, “NOVEL FUSED AMINODIHYDROTHIAZINE DERIVATIVE” (EISAI R&D MANAGEMENT CO., LTD., priority 2008, published 2011)

Test system: Aβ42 production
Test: Quantification of Aβ peptide in culture of neurons from rat fetus brain (Aβ42 ELISA)
Type: cell-based
Settings: Neuron, 72 h, rat primary neuronal culture (embryonic day 18 Wistar rat cerebral cortex), medium collected three days after addition of compound, read-out: Aβ42 production reducing effect IC50
Description: Quantification of Aβ Peptide in Culture of Neurons from Rat Fetus Brain
Primary neuronal cultures were prepared from the cerebral cortex of embryonic day 18 Wistar rats (Charles River Japan, Yokohama, Japan). Specifically, the embryos were aseptically removed from pregnant rats under ether anesthesia. The brain was isolated from the embryo and immersed in an ice-cold L-15 medium (such as Invitrogen Corp. Cat #11415-064, Carlsbad, Calif., USA, or SIGMA L1518). The cerebral cortex was collected from the isolated brain under a stereoscopic microscope. The cerebral cortex fragments collected were enzymatically treated in an enzyme solution containing 0.25% trypsin (Invitrogen Corp. Cat #15050-065, Carlsbad, Calif., USA) and 0.01% DNase (Sigma D5025, St. Louis, Mo., USA) at 37° C. for 30 minutes to disperse the cells. Here, the enzymatic reaction was stopped by adding inactivated horse serum to the solution. The enzymatically treated solution was centrifuged at 1,500 rpm for five minutes to remove the supernatant. 5 to 10 ml of a medium was added to the resulting cell mass. Neurobasal medium (Invitrogen Corp. Cat #21103-049, Carlsbad, Calif., USA) supplemented with 2% B27 supplement (Invitrogen Corp. Cat #17504-044, Carlsbad, Calif., USA), 25 μM 2-mercaptoethanol (2-ME, WAKO Cat #139-06861, Osaka, Japan), 0.5 mM L-glutamine (Invitrogen Corp. Cat #25030-081, Carlsbad, Calif., USA), and Antibiotics-Antimycotics (Invitrogen Corp. Cat #15240-062, Carlsbad, Calif., USA) was used as the medium (Neurobasal/B27/2-ME). However, the above Neurobasal medium not supplemented with 2-ME (Neurobasal/B27) was used for the assay. The cells were redispersed by mild pipetting of the cell mass to which the medium was added. The cell dispersion was filtered through a 40-μm nylon mesh (Cell Strainer, Cat #35-2340, Becton Dickinson Labware, Franklin Lakes, N.J., USA) to remove the remaining cell mass, and thus a neuronal cell suspension was obtained. The neuronal cell suspension was diluted with the medium and then plated in a volume of 100 μl/well at an initial cell density of 5×10^5 cells/cm^2 in a 96-well polystyrene culture plate pre-coated with poly-L or D-lysine (Falcon Cat #35-3075, Becton Dickinson Labware, Franklin Lakes, N.J., USA coated with poly-L-lysine using the method shown below, or BIOCOAT™ cell environments Poly-D-lysine cell ware 96-well plate, Cat #35-6461, Becton Dickinson Labware, Franklin Lakes, N.J., USA). Poly-L-lysine coating was carried out as follows. 100 μg/ml of a poly-L-lysine (SIGMA P2636, St. Louis, Mo., USA) solution was aseptically prepared with a 0.15 M borate buffer (pH 8.5). […] of the solution was added to the 96-well polystyrene culture plate and incubated at room temperature for one or more hours or at 4° C. overnight or longer. Thereafter, the coated 96-well polystyrene culture plate was washed with sterile water four or more times, and then dried or rinsed with, for example, sterile PBS or medium, and used for cell plating. The plated cells were cultured in the culture plate at 37° C. in 5% CO2-95% air for one day. Then, the total amount of the medium was replaced with a fresh Neurobasal/B27/2-ME medium, and then the cells were cultured for further three days.
The drug was added to the culture plate on Day 4 of culture as follows. The total amount of the medium was removed from the wells, and 180 μl/well of Neurobasal medium not containing 2-ME and containing 2% B-27 (Neurobasal/B27) was added thereto. A solution of the test compound in dimethyl sulfoxide (hereinafter abbreviated as DMSO) was diluted with Neurobasal/B27 to a concentration 10-fold higher than the final concentration. 20 μl/well of the dilution was added to and sufficiently mixed with the medium. The final DMSO concentration was 1% or less. Only DMSO was added to the control group.
The cells were cultured for three days after addition of the compound, and the total amount of the medium was collected. […]

Row | SMILES | IC50
1 | C[C@@H]1COC[C@]2(c3cc(NC(=O)c4cnc(OC(F)F)cn4)ccc3F)N=C(N)SC[C@H]12 (relative stereo) [Example 25, N-[3-((4aR*,5S*,8aS*)-2-amino-5-methyl-4,4a,5,6-tetrahydro-7-oxa-3-thia-1-azanaphthalen-8a-yl)-4-fluorophenyl]-5-difluoromethoxypyrazine-2-carboxamide] | 14 nM
2 | NC1=N[C@@]2(c3cc(NC(=O)c4cnc(C(F)F)cn4)ccc3F)CO[C@@H](CF)C[C@H]2CS1 [Example 48, N-[3-((4aR,6R,8aS)-2-amino-6-fluoromethyl-4,4a,5,6-tetrahydro-7-oxa-3-thia-1-azanaphthalen-8a-yl)-4-fluorophenyl]-5-difluoromethylpyrazine-2-carboxamide] | 2 nM
3 | C[C@H]1C[C@H]2CSC(N)=N[C@@]2(c2cc(NC(=O)c3ccc(C(F)(F)F)cn3)ccc2F)CO1 (relative stereo) [Example 8, N-[3-((4aR*,6S*,8aS*)-2-amino-6-methyl-4,4a,5,6-tetrahydro-7-oxa-3-thia-1-azanaphthalen-8a-yl)-4-fluorophenyl]-5-trifluoromethylpyridine-2-carboxamide] | 1.6 nM
4 | NC1=N[C@@]2(c3cc(NC(=O)c4cnc(OC(F)F)cn4)ccc3F)COCC[C@H]2CS1 (relative stereo) [Example 3, N-[3-((4aR*,8aS*)-2-amino-4,4a,5,6-tetrahydro-7-oxa-3-thia-1-azanaphthalen-8a-yl)-4-fluorophenyl]-5-difluoromethoxypyrazine-2-carboxamide] | 1 nM
5 | NC1=N[C@@]2(c3cc(NC(=O)c4ccc(F)cn4)ccc3F)CO[C@@H](C(F)(F)F)C[C@H]2CS1 (relative stereo) [Example 37, N-[3-((4aR*,6R*,8aS*)-2-amino-6-trifluoromethyl-4,4a,5,6-tetrahydro-7-oxa-3-thia-1-azanaphthlen-8a-yl)-4-fluorophenyl]-5-fluoropyriidne-2-carboxamide] | 2 nM
6 | N#Cc1ccc(C(=O)Nc2ccc(F)c([C@]34COCC[C@H]3CSC(N)=N4)c2)nc1 (relative stereo) [Example 1, N-[3-((4aR*,8aS*)-2-amino-4,4a,5,6-tetrahydro-7-oxa-3-thia-1-azanaphthalen-8a-yl)-4-fluorophenyl]-5-cyanopyridine-2-carboxamide] | 1.7 nM
7 | NC1=N[C@@]2(c3cc(NC(=O)c4ccc(OC(F)F)cn4)ccc3F)COCC[C@H]2CS1 (single isomer, unassigned) [Example 58, N-[3-((4aR*,8aS*)-2-amino-4,4a,5,6-tetrahydro-7-oxa-3-thia-1-azanaphthalen-8a-yl)-4-fluorophenyl]-5-difluoromethoxypyridine-2-carboxamide] | 4 nM
8 | C[C@@H]1COC[C@]2(c3cc(NC(=O)c4ccc(Cl)cn4)ccc3F)N=C(N)SC[C@H]12 (relative stereo) [Example 23, N-[3-((4aR*,5S*,8aS*)-2-amino-5-methyl-4,4a,5,6-tetrahydro-7-oxa-3-thia-1-azanaphthalen-8a-yl)-4-fluorophenyl]-5-chloropyridine-2-carboxamide] | 12 nM
9 | NC1=N[C@@]2(c3cc(NC(=O)c4ccc(Cl)cn4)ccc3F)CO[C@@H](CF)C[C@H]2CS1 [Example 45, N-[3-((4aR,6R,8aS)-2-amino-6-fluoromethyl-4,4a,5,6-tetrahydro-7-oxa-3-thia-1-azanaphthalen-8a-yl)-4-fluorophenyl]-5-chloropyridine-2-carboxamide] | 2 nM
10 | C[C@H]1SC(N)=N[C@@]2(c3cc(NC(=O)c4ccc(C#N)cn4)ccc3F)COCC[C@@H]12 (relative stereo) [Example 31, N-[3-((2R*,4aR*,8aS*)-2-amino-4-methyl-4,4a,5,6-tetrahydro-7-oxa-3-thia-1-azanaphthalen-8a-yl)-4-fluorophenyl]-5-cyanopyridine-2-carboxamide] | 1.9 nM
11 | NC1=N[C@@]2(c3cc(NC(=O)c4ccc(C(F)(F)F)cn4)ccc3F)COCC[C@H]2CS1 (single isomer, unassigned) [Example 55, N-[3-((4aR*,8aS*)-2-amino-4,4a,5,6-tetrahydro-7-oxa-3-thia-1-azanaphthalen-8a-yl)-4-fluorophenyl]-5-trifluoromethylpyridine-2-carboxamide] | 1.4 nM
12 | CO[C@H]1COC[C@]2(c3cc(NC(=O)c4ccc(C#N)cn4)ccc3F)N=C(N)SC[C@H]12 (relative stereo) [Example 30, N-[3-((4aS*,5R*,8aS*)-2-amino-5-methoxy-4,4a,5,6-tetrahydro-7-oxa-3-thia-1-azanaphthalen-8a-yl)-4-fluorophenyl]-5-cyanopyridine-2-carboxamide] | 6 nM
13 | N#Cc1ccc(C(=O)Nc2csc(C34COCCC3CSC(N)=N4)c2)nc1 (stereo in doubt) [Example 64, N-[5-((4aR*,8aS*)-2-amino-4,4a,5,6-tetrahydro-7-oxa-3-thia-1-azanaphthalen-8a-yl)thiophen-3-yl]-5-cyanopyridine-2-carboxamide] | 14 nM
14 | NC1=N[C@@]2(c3cc(NC(=O)c4ccc(F)cn4)ccc3F)COCC[C@H]2CS1 (single isomer, unassigned) [Example 53, N-[3-((4aR*,8aS*)-2-amino-4,4a,5,6-tetrahydro-7-oxa-3-thia-1-azanaphthalen-8a-yl)-4-fluorophenyl]-5-fluoropyridine-2-carboxamide] | 5.6 nM
15 | N#Cc1ccc(C(=O)Nc2ccc(F)c([C@]34CO[C@@H](CF)C[C@H]3CSC(N)=N4)c2)nc1 [Example 44, N-[3-((4aR,6R,8aS)-2-amino-6-fluoromethyl-4,4a,5,6-tetrahydro-7-oxa-3-thia-1-azanaphthalen-8a-yl)-4-fluorophenyl]-5-cyanopyridine-2-carboxamide] | 0.7 nM
16 | NC1=N[C@@]2(c3cc(-c4cccnc4F)ccc3F)CO[C@@H](CF)C[C@H]2CS1 [Example 60, (4aR,6R,8aS)-8a-[2-fluoro-5-(2-fluoropyridin-3-yl)phenyl]-6-fluoromethyl-4,4a,5,6,8,8a-hexahydro-7-oxa-3-thia-1-azanaphthalen-2-ylamine] | 32 nM
17 | COC[C@H]1C[C@H]2CSC(N)=N[C@@]2(c2cc(NC(=O)c3cnc(OCF)cn3)ccc2F)CO1 (relative stereo) [Example 14, N-[3-((4aR*,6R*,8aS*)-2-amino-6-methoxymethyl-4,4a,5,6-tetrahydro-7-oxa-3-thia-1-azanaphthalen-8a-yl)-4-fluorophenyl]-5-fluoromethoxypyrazine-2-carboxamide] | 0.8 nM
18 | NC1=N[C@@]2(c3cc(NC(=O)c4ccc(C(F)(F)F)cn4)ccc3F)COC[C@@H](F)[C@H]2CS1 [Example 19, N-[3-((4aS,5S,8aS)-2-amino-5-fluoro-4,4a,5,6-tetrahydro-7-oxa-3-thia-1-azanaphthalen-8a-yl)-4-fluorophenyl]-5-trifluoromethylpyridine-2-carboxamide] | 2 nM
19 | NC1=N[C@@]2(c3cc(NC(=O)c4cnc(OC(F)F)cn4)ccc3F)CO[C@@H](C(F)(F)F)C[C@H]2CS1 (relative stereo) [Example 36, N-[3-((4aR*,6R*,8aS*)-2-amino-6-trifluoromethyl-4,4a,5,6-tetrahydro-7-oxa-3-thia-1-azanaphthalen-8a-yl)-4-fluorophenyl]-5-difluoromethoxypyrazine-2-carboxamide] | 0.5 nM
